Where “and” joins values, the source holds several entries; their conditions need not be identical. Identical values can stand only once. Entries after “also recorded” stand apart in the source; their conditions may differ.
Tests used:
TYK2 [1] = molecular target: T1, TYK2 (Homo sapiens, UniProt P29597); test: 33P-ATP kinase assay, TYK2; assay type: biochemical; details: read-out: IC50 TYK2; 33P-ATP assay, 10 μM ATP
JAK1 [2] = molecular target: T2, JAK1 (Homo sapiens, UniProt P23458); test: 33P-ATP kinase assay, JAK1; assay type: biochemical; details: read-out: IC50 JAK1; 33P-ATP assay, 10 μM ATP
T2 sequence (P23458 whole entry): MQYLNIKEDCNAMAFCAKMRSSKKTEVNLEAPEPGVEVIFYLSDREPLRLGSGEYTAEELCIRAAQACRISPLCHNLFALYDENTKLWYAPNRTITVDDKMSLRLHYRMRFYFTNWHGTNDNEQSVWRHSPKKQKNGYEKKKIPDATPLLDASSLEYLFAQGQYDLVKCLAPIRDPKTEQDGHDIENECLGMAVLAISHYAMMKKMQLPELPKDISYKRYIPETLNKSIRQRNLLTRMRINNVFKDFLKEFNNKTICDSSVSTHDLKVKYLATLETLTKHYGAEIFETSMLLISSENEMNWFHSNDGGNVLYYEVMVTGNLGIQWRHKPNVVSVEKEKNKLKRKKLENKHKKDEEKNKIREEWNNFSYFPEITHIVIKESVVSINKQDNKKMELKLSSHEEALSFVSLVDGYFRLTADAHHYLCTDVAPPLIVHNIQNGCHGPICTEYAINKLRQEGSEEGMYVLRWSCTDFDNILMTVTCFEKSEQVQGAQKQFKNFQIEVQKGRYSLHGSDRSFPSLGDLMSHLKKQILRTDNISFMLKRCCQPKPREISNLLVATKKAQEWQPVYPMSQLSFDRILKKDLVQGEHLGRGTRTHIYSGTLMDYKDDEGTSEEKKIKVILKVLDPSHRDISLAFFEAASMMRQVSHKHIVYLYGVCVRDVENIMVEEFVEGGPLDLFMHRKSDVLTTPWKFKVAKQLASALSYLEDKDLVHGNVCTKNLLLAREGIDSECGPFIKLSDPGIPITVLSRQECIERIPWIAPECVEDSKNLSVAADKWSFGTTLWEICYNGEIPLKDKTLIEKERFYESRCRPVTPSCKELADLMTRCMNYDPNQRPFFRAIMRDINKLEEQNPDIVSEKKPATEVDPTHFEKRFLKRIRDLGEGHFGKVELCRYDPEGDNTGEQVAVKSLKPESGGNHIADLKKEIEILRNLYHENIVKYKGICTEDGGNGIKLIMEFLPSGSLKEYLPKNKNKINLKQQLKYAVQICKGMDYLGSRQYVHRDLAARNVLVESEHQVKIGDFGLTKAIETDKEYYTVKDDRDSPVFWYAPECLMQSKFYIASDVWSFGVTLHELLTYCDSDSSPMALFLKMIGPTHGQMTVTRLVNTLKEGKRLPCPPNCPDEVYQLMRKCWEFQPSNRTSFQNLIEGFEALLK

JAK3 [3] = molecular target: T3, JAK3 (Homo sapiens, UniProt P52333); test: 33P-ATP kinase assay, JAK3; assay type: biochemical; details: read-out: IC50 JAK3; 33P-ATP assay, 10 μM ATP
T3 sequence (P52333 1-1124): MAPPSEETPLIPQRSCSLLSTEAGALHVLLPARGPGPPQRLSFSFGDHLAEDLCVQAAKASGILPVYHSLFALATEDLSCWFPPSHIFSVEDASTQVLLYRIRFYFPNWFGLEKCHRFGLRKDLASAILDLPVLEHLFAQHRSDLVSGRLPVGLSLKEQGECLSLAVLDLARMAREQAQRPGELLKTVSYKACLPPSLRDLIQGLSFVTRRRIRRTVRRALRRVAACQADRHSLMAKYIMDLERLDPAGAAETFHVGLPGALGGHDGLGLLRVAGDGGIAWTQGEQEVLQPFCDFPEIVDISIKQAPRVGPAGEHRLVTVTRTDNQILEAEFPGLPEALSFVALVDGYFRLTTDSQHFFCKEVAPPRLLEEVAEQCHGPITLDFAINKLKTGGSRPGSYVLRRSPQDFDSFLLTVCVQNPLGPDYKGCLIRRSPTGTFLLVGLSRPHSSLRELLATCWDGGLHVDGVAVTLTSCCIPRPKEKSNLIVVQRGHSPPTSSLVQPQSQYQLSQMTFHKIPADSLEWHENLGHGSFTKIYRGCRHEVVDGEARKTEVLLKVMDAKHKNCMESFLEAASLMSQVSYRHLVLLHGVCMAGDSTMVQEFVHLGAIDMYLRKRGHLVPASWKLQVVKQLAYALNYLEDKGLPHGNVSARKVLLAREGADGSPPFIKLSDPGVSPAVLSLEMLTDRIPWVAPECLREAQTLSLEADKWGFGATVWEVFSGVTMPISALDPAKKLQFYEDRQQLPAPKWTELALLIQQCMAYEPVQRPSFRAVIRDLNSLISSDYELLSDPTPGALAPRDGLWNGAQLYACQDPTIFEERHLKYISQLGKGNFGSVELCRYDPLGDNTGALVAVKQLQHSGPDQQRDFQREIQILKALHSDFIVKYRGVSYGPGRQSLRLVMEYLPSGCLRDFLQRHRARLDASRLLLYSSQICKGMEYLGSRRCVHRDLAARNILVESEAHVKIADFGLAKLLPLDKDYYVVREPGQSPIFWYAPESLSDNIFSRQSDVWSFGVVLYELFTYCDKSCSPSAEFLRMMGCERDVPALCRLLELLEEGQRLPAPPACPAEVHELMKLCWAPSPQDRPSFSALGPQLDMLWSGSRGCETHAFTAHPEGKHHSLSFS

TYK2 [4] = molecular target: T1, TYK2; test: IL-12-induced pSTAT4 in NK-92 cells; assay type: cell-based; details: read-out: IC50 TYK2, pSTAT (cell lines), IL-12, pSTAT4
JAK1 [5] = molecular target: T2, JAK1; test: IL-6-induced pSTAT3 in TF-1 cells; assay type: cell-based; details: read-out: IC50 JAK1, pSTAT (cell lines), IL-6, pSTAT3
TYK2 [6] = molecular target: T1, TYK2; test: IL-12-induced pSTAT4 in primary CD4+ cells; assay type: cell-based; details: read-out: IC50 TYK2, pSTAT (primary cells), IL-12, pSTAT4
JAK1 [7] = molecular target: T2, JAK1; test: IL-6-induced pSTAT3 in primary CD4+ cells; assay type: cell-based; details: read-out: IC50 JAK1, pSTAT (primary cells), IL-6, pSTAT3
JAK3 [8] = molecular target: T3, JAK3; test: IL-2-induced pSTAT5 in PBMCs; assay type: cell-based; details: read-out: IC50 JAK3, pSTAT (primary cells), IL-2, pSTAT5
IL-22 signaling [9] = test: IL-22-induced pSTAT3 in HT-29 cells; assay type: cell-based, human
IL-12 signaling = test: IL-12-induced IFN-γ production in PBMCs; assay type: cell-based; details: human PBMCs, 10 ng/mL IL-12, 24 hours
IFN-α signaling = test: HEK-BLUE IFN-α/β SEAP reporter assay; assay type: cell-based; details: HEK-BLUE IFN-α/β cells, 200 U IFN-α, 24 hours
Splenic CD4+ cells = test: T helper cell development; assay type: cell-based, mouse; details: 1 μM, 4 days; for IFN-γ production in Th1 cells: Th1 conditions; for IL-4 in Th2 cultures: Th2 conditions; for Foxp3+ cells under Th17-skewing conditions / percent of IL-17+ cells: Th17-skewing conditions; for development of iTregs: iTreg conditions
CD4+ T cells = test: CD4+ T cell proliferation; assay type: cell-based, mouse; details: anti-CD28/anti-TCR, 4 days
[10] = Mouse liver microsome stability; assay type: in vitro ADME; details: 0.5 μM
Caco-2 permeability = assay type: in vitro ADME; details: 5 μM, pH 7.4
[11] = In vivo pharmacokinetics in CD-1 mice; design: species or system mouse; details: for Cmax or Co: CD-1 mice
IL-12 signaling in vivo = test: IL-12/IL-18-induced serum IFN-γ in vivo; design: species or system mouse; details: 60 mg/kg, 30 minutes prior to IL-12/IL-18, vs vehicle
IL-22 signaling [12] = test: IL-22-induced Serum Amyloid A; assay type: in vivo, mouse; details: 50 mg/kg p.o., C57BL/6 mice, 10 μg IL-22, 6 hours, vs vehicle
[13] = test system: imiquimod-induced dermatitis; test: Imiquimod-induced psoriasis-like dermatitis; assay type: in vivo
non-JAK kinases = test: Kinome analysis; assay type: biochemical; details: 100 nM
TYK2 [14] = molecular target: T1, TYK2; test: TR-FRET STAT3 phosphorylation assay, TYK2; details: read-out: IC50 TYK2, 10 μM ATP, GFP-STAT3
JAK1 [15] = molecular target: T2, JAK1; test: TR-FRET STAT3 phosphorylation assay, JAK1; details: read-out: IC50 JAK1, 10 μM ATP, GFP-STAT3
JAK3 [16] = molecular target: T3, JAK3; test: TR-FRET STAT3 phosphorylation assay, JAK3; details: read-out: IC50 JAK3, 10 μM ATP, GFP-STAT3
[17] = 50 mg/kg p.o. twice daily, back skin
[18] = 50 mg/kg, qPCR, vs wild type and TYK2 mutant mice

T1 sequence (P29597 whole entry): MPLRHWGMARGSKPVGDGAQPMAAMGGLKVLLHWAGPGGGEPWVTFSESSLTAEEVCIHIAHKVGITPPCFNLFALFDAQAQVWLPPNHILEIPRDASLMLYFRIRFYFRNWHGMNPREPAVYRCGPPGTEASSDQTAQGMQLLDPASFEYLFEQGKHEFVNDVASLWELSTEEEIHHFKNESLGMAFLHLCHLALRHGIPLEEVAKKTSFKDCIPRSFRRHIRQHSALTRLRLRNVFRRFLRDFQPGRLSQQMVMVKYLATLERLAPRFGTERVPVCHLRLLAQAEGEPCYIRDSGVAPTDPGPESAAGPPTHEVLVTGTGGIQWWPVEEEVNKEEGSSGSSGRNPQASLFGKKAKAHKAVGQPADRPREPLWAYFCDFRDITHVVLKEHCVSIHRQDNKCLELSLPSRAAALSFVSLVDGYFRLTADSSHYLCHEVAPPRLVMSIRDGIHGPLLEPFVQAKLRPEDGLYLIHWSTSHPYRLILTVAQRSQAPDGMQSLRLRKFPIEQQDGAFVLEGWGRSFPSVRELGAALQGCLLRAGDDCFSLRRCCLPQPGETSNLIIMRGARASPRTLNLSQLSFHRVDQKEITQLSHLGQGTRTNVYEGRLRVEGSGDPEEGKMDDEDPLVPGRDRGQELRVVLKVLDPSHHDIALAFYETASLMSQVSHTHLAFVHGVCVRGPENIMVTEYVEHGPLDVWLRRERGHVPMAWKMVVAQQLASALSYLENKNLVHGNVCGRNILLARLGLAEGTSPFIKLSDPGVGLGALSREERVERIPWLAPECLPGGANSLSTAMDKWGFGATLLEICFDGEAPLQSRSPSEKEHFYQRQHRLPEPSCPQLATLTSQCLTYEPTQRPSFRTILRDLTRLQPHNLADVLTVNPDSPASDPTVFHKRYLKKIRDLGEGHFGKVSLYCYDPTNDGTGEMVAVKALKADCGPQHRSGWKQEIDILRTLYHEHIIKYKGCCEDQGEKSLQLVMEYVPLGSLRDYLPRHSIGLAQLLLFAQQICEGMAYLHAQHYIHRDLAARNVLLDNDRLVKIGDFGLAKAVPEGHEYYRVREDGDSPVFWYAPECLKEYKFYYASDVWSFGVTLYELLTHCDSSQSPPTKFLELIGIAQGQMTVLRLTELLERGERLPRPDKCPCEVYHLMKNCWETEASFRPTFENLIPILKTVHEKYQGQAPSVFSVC

NC(=O)c1nc(-c2c(F)cccc2Cl)oc1Nc1ccc(C(=O)N2CCOCC2)cc1 [SAR-20347]
IC50 (TYK2 [1]): 0.6 ± 0.1 nM
IC50 (JAK1 [2]): 23 ± 19 nM
IC50 (JAK3 [3]): 41 ± 11 nM
IC50 (TYK2 [4]): 126 nM
IC50 (JAK1 [5]): 345 nM
IC50 (TYK2 [6]): 107 nM
IC50 (JAK1 [7]): 423 nM
IC50 (JAK3 [8]): 1610 nM
inhibition of STAT3 phosphorylation (IL-22 signaling [9]; 10 μM): 94%
IC50 (IL-22 signaling [9]; read-out: IC50 IL-22-induced pSTAT3, 10 ng/mL IL-22, 15 minutes): 148 nM
inhibition of IL-12 induced IFN-γ production (IL-12 signaling): dose-dependent inhibition of IFN-γ production; also recorded: complete inhibition
inhibition of SEAP production (IFN-α signaling): dose-dependently inhibited the production of SEAP
IFN-γ production in Th1 cells (Splenic CD4+ cells): potently blocked IFN-γ production
IL-4 in Th2 cultures (Splenic CD4+ cells): capable of reducing IL-4
Foxp3+ cells under Th17-skewing conditions (Splenic CD4+ cells): dramatic increase in Foxp3+ cells
percent of IL-17+ cells (Splenic CD4+ cells): reduces the percent of IL-17+cells
development of iTregs (Splenic CD4+ cells): did not alter the development of iTregs
CD4+ T cell proliferation (CD4+ T cells): inhibited proliferation to a comparable extent
doses significantly decreasing proliferation compared to 0 μM (DMSO) (CD4+ T cells; two-way ANOVA): ≥ 0.315 µM
clearance rate in mouse liver microsomes [10]: 26 µL/min/mg
half-life in mouse liver microsomes [10]: 52.7 min
Caco-2 AB: BA (Caco-2 permeability): 1.3
Caco-2 permeability (Caco-2 permeability): good permeability
AUC0-8h ([11]; 1 mg/kg (i.v.)): 305 ng/h/mL
Cl ([11]; 1 mg/kg (i.v.)): 52 mL/min/kg and 52.1 mL/min/kg
T1/2 ([11]; 1 mg/kg (i.v.)): 162 min
Cmax or Co ([11]; 1 mg/kg (i.v.)): 433 ng/mL
AUC0-8h ([11]; 10 mg/kg (p.o.)): 2131 ng/h/mL
F ([11]; 10 mg/kg (p.o.)): 69.8%
T1/2 ([11]; 10 mg/kg (p.o.)): 144 min
Tmax ([11]; 10 mg/kg (p.o.)): 24 min
Cmax or Co ([11]; 10 mg/kg (p.o.)): 1343 ng/mL
AUC0-8h ([11]; 50 mg/kg (p.o.)): 18740 ng/h/mL
T1/2 ([11]; 50 mg/kg (p.o.)): 168 min
Tmax ([11]; 50 mg/kg (p.o.)): 30 min
Cmax or Co ([11]; 50 mg/kg (p.o.)): 6273 ng/mL
maximum serum concentration (Tmax) ([11]; mice): 30 min
inhibition of production of IFN-γ in the serum (IL-12 signaling in vivo): 91%
decrease of SAA levels (IL-22 signaling [12]): 45%
gross toxicity ([13]; 50 mg/kg p.o. twice daily): no gross toxicity
Ki67 staining [13, 17]: significantly reduced
histological score [13, 17]: significantly reduced
keratinocyte cell numbers [13, 17]: significantly reduced
scaling and redness (clinical score) ([13]; 50 mg/kg p.o. twice daily, vs TYK2 mutant or vehicle-treated wild type mice): markedly reduced scaling and redness
IL-2 expression levels in the skin ([13]; 50 mg/kg, qPCR): did not affect
IL-10 expression levels in the skin ([13]; 50 mg/kg, qPCR): did not affect
S100A8 gene expression in the skin ([13]; 50 mg/kg, qPCR): significantly decreased
S100A9 gene expression in the skin ([13]; 50 mg/kg, qPCR): significantly decreased
defensin β1 gene expression in the skin ([13]; 50 mg/kg, qPCR): significantly decreased
IL-6 mRNA expression in the skin [13, 18]: significantly reduced expression
IL-17 mRNA expression in the skin [13, 18]: significantly reduced expression
IL-20 mRNA expression in the skin [13, 18]: significantly reduced expression
IL-22 mRNA expression in the skin [13, 18]: significantly reduced expression
IL-23 mRNA expression in the skin [13, 18]: significantly reduced expression
TNF mRNA expression in the skin [13, 18]: significantly reduced expression
IL-17 production (average signal intensity) ([13]; 50 mg/kg, skin IHC): significantly reduced IL-17 production
Vγ3 expression (average signal intensity) ([13]; 50 mg/kg, skin IHC): significantly lower
number of CD4+ cells in skin ([13]; 50 mg/kg, skin IHC): not affected
inhibitory activity towards non-JAK kinases (non-JAK kinases): comparable to the previously established values for tofacitinib and ruxolitinib
IC50 (TYK2 [14]): 13 ± 3 nM
IC50 (JAK1 [15]): 59 ± 43 nM
IC50 (JAK3 [16]): 1440 ± 630 nM

C[C@@H]1CCN(C(=O)CC#N)C[C@@H]1N(C)c1ncnc2[nH]ccc12 [Tofacitinib, reference compound]
IFN-γ production in Th1 cells (Splenic CD4+ cells): potently blocked IFN-γ production
IL-4 in Th2 cultures (Splenic CD4+ cells): capable of reducing IL-4
Foxp3+ cells under Th17-skewing conditions (Splenic CD4+ cells): no effect on Th17 skewing or change in the number of Foxp3+ cells
percent of IL-17+ cells (Splenic CD4+ cells): no effect on Th17 skewing
development of iTregs (Splenic CD4+ cells): significantly reduced iTreg development

Reference: paper PMC4170002 (Journal of immunology (Baltimore, Md. : 1950), 2014)
